These results are taken from US20200071351A1, “TACCALONOLIDE MICROTUBULE STABILIZERS” (THE BOARD OF REGENTS OF THE UNIVERSITY OF TEXAS SYSTEM, priority 2016, published 2020).

Read-outs that look alike come from different tables or passages of the source.

Assay [1] deals with HeLa cells. Put plainly: Inhibition of cellular proliferation, SRB assay, HeLa cells. Particulars: for activity at concentrations as high as 30,000 nM: up to 30,000 nM. Type of assay: cell-based. On the procedure:
The ability of the compounds to initiate cytotoxicity was also determined. […] The determination of IC50 values was performed on taccalonolide material after NMR analysis and subsequent lyophilization. Ethanol or DMSO was used as the vehicle for all cellular studies.
The antiproliferative potencies of the taccalonolides were evaluated in HeLa cells using the SRB assay.

Assay [2] has as its system HeLa cells. Kind of assay: Mitotic spindle structures, indirect immunofluorescence. Type of assay: cell-based. Particulars: 18 h, 125 nM AF, 200 nM AI, 35 nM AJ. As for the experimental part: Cellular microtubules in interphase and mitotic HeLa cells were visualized using indirect immunofluorescence techniques as previously described (Tinley et al., 2003). […] Representative images of interphase and mitotic cells were acquired using a Nikon Eclipse 80i fluorescence microscope and compiled using NIS Elements AR 3.0 software.
The effects of the taccalonolides on mitotic spindle structures were evaluated to test whether they caused mitotic spindle defects leading to cell cycle arrest. β-tubulin and DNA were visualized in HeLa cells by indirect immunofluorescence and DAPI staining, respectively. […] These mitotic cells contained multiple abnormal mitotic spindles, which is another common effect of microtubule stabilizing agents (FIGS. 4A-D).
The microtubule structures in mitotic cells were visualized by indirect immunofluorescence using a β-tubulin antibody.

Setting [3] is: HeLa cells, SRB assay, parent taccalonolide, read-out: IC50.
[4] abbreviates: Homo sapiens, HeLa, HeLa cells, SRB assay, parent taccalonolide, read-out: IC50.

Take “5α-hydroxy-taccalonolide A [Taccalonolide Z]”: in the assay on HeLa cells [1] (setting [3]), the half-maximal inhibitory concentration (IC50) came to 0.12 µM.
Consider `CC(=O)O[C@H]1C[C@H]2[C@H]([C@@H]3[C@@H](O)[C@@H]4[C@H]([C@H](C)[C@@H]5O[C@@]56OC(=O)[C@@](C)(O)[C@]46C)[C@]31C)[C@@H](O)C(=O)[C@H]1C[C@@H]3O[C@@H]3[C@H](OC(C)=O)[C@@]12C` [N-epo], for which the IC50 with HeLa cells [1] (HeLa cells, SRB assay, C22-C23 epoxide of the taccalonolide in the same line, read-out: Corresponding Epoxide IC50) came to 0.011 µM.
Regarding `CC(=O)O[C@@H]1[C@H]2[C@H]3[C@H]([C@H](OC(C)=O)[C@H](OC(C)=O)[C@]2(C)[C@@H]2[C@@H]1[C@]1(C)C(=C[C@H]2C)OC(=O)[C@@]1(C)O)[C@]1(C)[C@H](C[C@@H]2O[C@@H]2[C@@H]1OC(C)=O)C(=O)[C@@H]3O` [Taccalonolide A, reference compound], the IC50 in the assay with HeLa cells [1] (setting [4]) stood at 5.38 µM.
Still for that read-out and setting: next, `CC(=O)O[C@@H]1[C@H]2[C@H]3[C@H]([C@H](OC(C)=O)[C@H](OC(C)=O)[C@]2(C)[C@@H]2[C@@H]1[C@]1(C)C(=C[C@H]2C)OC(=O)[C@@]1(C)O)[C@@]1(C)[C@@H](OC(C)=O)[C@H]2O[C@H]2C[C@]1(O)C(=O)[C@@H]3OC(C)=O` [Taccalonolide AA]: 0.0323 µM.
Same read-out and setting: under `CC(=O)O[C@H]1[C@H]2[C@H]([C@@H]3[C@@H](O)[C@@H]4[C@H]([C@H](C)C=C5OC(=O)[C@@](C)(O)[C@@]54C)[C@@]3(C)[C@H]1OC(C)=O)[C@@H](O)C(=O)[C@@]1(O)C[C@@H]3O[C@@H]3[C@H](OC(C)=O)[C@]21C` [Taccalonolide AB] stands 2.77 µM.
For `CC(=O)O[C@@H]1[C@H]2[C@H]3C([C@H](OC(C)=O)[C@H](OC(C)=O)[C@]2(C)[C@@H]2[C@@H]1[C@]1(C)C(=C[C@@]2(C)OO)OC(=O)[C@@]1(C)O)[C@]1(C)[C@H](C[C@@H]2O[C@@H]2[C@@H]1OC(C)=O)C(=O)[C@@H]3O` (stereo partly drawn) [Taccalonolide AC], the “activity at concentrations as high as 50,000 nM” value in the assay on HeLa cells [1] (HeLa cells, up to 50,000 nM) is reported as “no activity”.
Consider `CC(=O)O[C@@H]1[C@H]2[C@@H]3C(=O)C(O)=C4C[C@@H]5O[C@@H]5[C@H](OC(C)=O)[C@]4(C)[C@H]3[C@H](OC(C)=O)[C@H](OC(C)=O)[C@]2(C)[C@@H]2[C@@H]1[C@]1(C)C(=C[C@H]2C)OC(=O)[C@@]1(C)O` [Taccalonolide AD], for which, in the assay on HeLa cells [1] (setting [3]), the IC50 is 3.48 µM.
Take `CC(=O)O[C@@H]1[C@H]2[C@H]3[C@H]([C@H](OC(C)=O)[C@H](OC(C)=O)[C@]2(C)[C@@H]2[C@@H]1[C@]1(C)C(=C[C@H]2C)OC(=O)[C@@]1(C)O)[C@]1(C)[C@H](C[C@@H]2O[C@@H]2[C@@H]1OC(C)=O)C(=O)C3(O)O` [Taccalonolide AE]: the IC50 in the assay with HeLa cells [1] (setting [3]) came out at 5.01 µM.
For the molecule `CC(=O)O[C@H]1C[C@H]2[C@H]([C@@H]3[C@@H](O)[C@@H]4[C@H]([C@H](C)C=C5OC(=O)[C@@](C)(O)[C@@]54C)[C@]31C)[C@@H](O)C(=O)[C@H]1C[C@@H]3O[C@@H]3[C@H](OC(=O)CC(C)C)[C@@]12C` [Taccalonolide AI], the IC50 in the assay on HeLa cells [1] (setting [3]) is 0.047 µM. In addition, the “effect on mitotic spindle structures” value in the assay on HeLa cells [2] is “mitotic arrest of cells with multiple abnormal mitotic spindles”.
Turning to `CC(=O)O[C@H]1C[C@H]2[C@H]([C@@H]3[C@H]4OC(=O)[C@@](C)(O)[C@@]5(C)C(=O)C[C@@H](C)[C@@H]([C@@H]45)[C@]31C)[C@@H](O)C(=O)[C@H]1C[C@@H]3O[C@@H]3[C@H](OC(C)=O)[C@@]12C` [Taccalonolide AK], the IC50 in the assay with HeLa cells [1] (setting [3]) is over 30 µM. Also, the “activity at concentrations as high as 30,000 nM” value (“activity … as 30,000 nM” below) in the assay on HeLa cells [1] (HeLa cells) is on record as “no activity”.
With `CC(=O)O[C@H]1C[C@H]2[C@H]([C@@H]3[C@@H](O)[C@@H]4[C@H]([C@H](C)C=C5OC(=O)[C@@](C)(O)[C@@]54C)[C@]31C)[C@@H](O)C(=O)[C@@]1(O)C[C@@H]3O[C@@H]3[C@H](OC(=O)CC(C)C)[C@]21C` [Taccalonolide AM], in the assay with HeLa cells [1] (setting [3]), the IC50 came out at 1.2 µM.
With `CC(=O)O[C@H]1C[C@H]2[C@H]([C@@H]3[C@@H](O)[C@@H]4[C@H]([C@H](C)C=C5OC(=O)[C@@](C)(O)[C@@]54C)[C@]31C)[C@@H](O)C(=O)[C@H]1C[C@@H]3O[C@@H]3[C@H](O)[C@@]12C` [Taccalonolide AN], the IC50 in the assay with HeLa cells [1] (setting [3]) was 1 µM.
In the case of `CC(=O)O[C@H]1[C@H]2[C@H]([C@@H]3[C@H]4OC(=O)[C@@](C)(O)[C@@]5(C)C(=O)C[C@@H](C)[C@@H]([C@@H]45)[C@@]3(C)[C@H]1OC(C)=O)[C@@H](O)C(=O)[C@H]1C[C@@H]3O[C@@H]3[C@H](OC(C)=O)[C@]21C` [Taccalonolide AO], in the assay on HeLa cells [1] (setting [3]), the IC50 was over 30 µM. Besides, in the assay on HeLa cells [1] (HeLa cells), the “activity … as 30,000 nM” value is “no activity”.
Regarding `CC(=O)O[C@H]1[C@H]2[C@H]([C@@H]3[C@@H](O)[C@@H]4[C@H]([C@H](C)C=C5OC(=O)[C@@](C)(O)[C@@]54C)[C@@]3(C)[C@H]1OC(C)=O)[C@@H](O)C(=O)[C@H]1C[C@@H]3O[C@@H]3[C@H](OC(C)=O)[C@]21C` [Taccalonolide B, reference compound], in the assay with HeLa cells [1] (setting [4]), the half-maximal inhibitory concentration (IC50) was 3.12 µM.
Turning to `CC(=O)O[C@@H]1[C@H]2[C@@H]3[C@@H](O)C(=O)[C@H]4C[C@@H]5O[C@@H]5[C@H](OC(C)=O)[C@]4(C)[C@H]3C[C@H](OC(C)=O)[C@]2(C)[C@@H]2[C@@H]1[C@]1(C)C(=C[C@H]2C)OC(=O)[C@@]1(C)O` [Taccalonolide E, reference compound], the IC50 in the assay on HeLa cells [1] (setting [4]) was 39.5 µM.
In the case of `CC(=O)O[C@H]1[C@@H]2[C@H]([C@H](C)C=C3OC(=O)[C@@](C)(O)[C@@]32C)[C@]2(C)[C@@H]1C1=C(O)C(=O)[C@H]3C[C@@H]4O[C@@H]4[C@H](OC(C)=O)[C@]3(C)[C@H]1[C@H](OC(C)=O)[C@@H]2OC(C)=O` [Taccalonolide H2], in the assay with HeLa cells [1] (HeLa IC50 ratio), the “more potent than taccalonolide A” value is given as 7.4 fold. The concentration for half-maximal inhibition (IC50) with HeLa cells [1] (setting [3]) turned out to be 0.73 µM.
In the case of `CC(=O)O[C@H]1[C@H]2[C@@H](C(=O)[C@H](O)[C@H]3C[C@@H]4O[C@@H]4[C@H](OC(C)=O)[C@]23C)[C@@H]2[C@@H](O)[C@@H]3[C@H]([C@H](C)C=C4OC(=O)[C@@](C)(O)[C@@]43C)[C@@]2(C)[C@H]1OC(C)=O` [Taccalonolide I, reference compound], the IC50 with HeLa cells [1] (setting [4]) is over 10 µM.
Still for that read-out and setting: under `CC(=O)O[C@H]1C[C@H]2[C@H]([C@@H]3[C@@H](O)[C@@H]4[C@H]([C@H](C)C=C5OC(=O)[C@@](C)(O)[C@@]54C)[C@]31C)[C@@H](O)C(=O)[C@H]1C[C@@H]3O[C@@H]3[C@H](OC(C)=O)[C@@]12C` [Taccalonolide N, reference compound] stands 8.5 µM.
On to `CC(=O)O[C@@H]1[C@H]2[C@@H]3[C@@H](OC(C)=O)C(=O)[C@@]4(O)C[C@@H]5O[C@@H]5[C@H](OC(C)=O)[C@]4(C)[C@H]3C[C@H](OC(C)=O)[C@]2(C)[C@@H]2[C@@H]1[C@]1(C)C(=C[C@H]2C)OC(=O)[C@@]1(C)O` [Taccalonolide R, reference compound], for which the half-inhibitory concentration (IC50) in the assay with HeLa cells [1] (setting [4]) was 13.1 µM; in the assay on HeLa cells [1] (Homo sapiens, HeLa, read-out: IC50), 13 µM.
Regarding `CC(=O)O[C@@H]1[C@H]2[C@@H]3[C@@H](O)C(=O)[C@H]4C[C@@H]5O[C@@H]5[C@H](OC(=O)C(C)C)[C@]4(C)[C@H]3C[C@H](OC(C)=O)[C@]2(C)[C@@H]2[C@@H]1[C@]1(C)C(=C[C@H]2C)OC(=O)[C@@]1(C)O` [Taccalonolide S, reference compound], in the assay with HeLa cells [1] (setting [4]), the IC50 was 0.009 µM.
For `CC(=O)O[C@@H]1[C@H]2[C@@H]3[C@@H](OC(C)=O)C(=O)[C@@]4(O)C[C@@H]5O[C@@H]5[C@H](OC(=O)CC(C)C)[C@]4(C)[C@H]3C[C@H](OC(C)=O)[C@]2(C)[C@@H]2[C@@H]1[C@]1(C)C(=C[C@H]2C)OC(=O)[C@@]1(C)O` [Taccalonolide T, reference compound], the IC50 with HeLa cells [1] (setting [4]) was 0.335 µM.
Consider Taccalonolide AG, for which the IC50 in the assay on HeLa cells [1] (setting [3]) amounted to 0.032 µM.
With Taccalonolide AH, the half-inhibitory concentration (IC50) in the assay with HeLa cells [1] (setting [3]) amounted to 0.158 µM.
The same measure, in the same setting: under Taccalonolide AL stands 18 µM.
For Taccalonolide AP, in the assay on HeLa cells [1] (setting [3]), the half-maximal inhibitory concentration (IC50) is over 30 µM.
As for Taccalonolide AQ, the half-inhibitory concentration (IC50) with HeLa cells [1] (setting [3]) is over 30 µM. In addition, in the assay on HeLa cells [1] (HeLa cells), the “activity … as 30,000 nM” value is reported as “little to no activity”.
Turning to Taccalonolide AR, in the assay on HeLa cells [1] (setting [3]), the IC50 was over 30 µM. Further, in the assay on HeLa cells [1] (HeLa cells), the “activity … as 30,000 nM” value is “little to no activity”.
The matching figures for Taccalonolide AS: over 10 µM and “little to no activity”.
